Bridge positions count the residues as written; N and C are the ends. Square brackets hold non-standard residues; d marks the D form. Peptide text beside a SMILES is read from it. * marks the point of attachment. ξ: configuration not given here. Phe(4-COOH) = N[C@@H](Cc1ccc(C(=O)O)cc1)C(=O)O; Bip = N[C@@H](Cc1ccc(-c2ccccc2)cc1)C(=O)O; Phe(3-Me) = Cc1cccc(C[C@H](N)C(=O)O)c1; Phe(4-F) = N[C@@H](Cc1ccc(F)cc1)C(=O)O; Val(3-OH) = CC(C)(O)[C@H](N)C(=O)O; 3Pal = N[C@@H](Cc1cccnc1)C(=O)O; 4Pal = N[C@@H](Cc1ccncc1)C(=O)O; 3Thi = N[C@@H](Cc1ccsc1)C(=O)O; Cha = N[C@@H](CC1CCCCC1)C(=O)O; Cit = NC(=O)NCCC[C@H](N)C(=O)O; Ile(3ξ) = CCC(C)[C@H](N)C(=O)O; Thr(3ξ) = CC(O)[C@H](N)C(=O)O; dNle = CCCC[C@@H](N)C(=O)O; Pip = O=C(O)[C@@H]1CCCCN1; Carboxymethyl = O=C(O)C*; NMeA = CN[C@@H](C)C(=O)O; Orn = NCCC[C@H](N)C(=O)O; Pra = C#CC[C@H](N)C(=O)O; Dab = NCC[C@H](N)C(=O)O

In US20240409585A1, “MACROCYCLIC IMMUNOMODULATORS” (priority 2021, published 2024) one finds IC50 data, which are given here for 15 molecules.

The target in the experiment is T1, PE-labeled human PD-L1-Ig binding to Jurkat cell line over-expressing human PD-1 (Jurkat-PD-1) (Homo sapiens, UniProt Q15116).
T1 construct: expressed in transfected cells; host or cells: Jurkat
As to the kind of experiment: Jurkat-PD-1 Cell Binding High-Content Screening Assay (CBA): Method 1. The following applies: Jurkat-hPD-1 cells, PE-labeled PD-L1-Ig 20 nM final; read-out: Jurkat HPDL1 PD1 IC50 (uM) (Method 1).

T1 sequence (Q15116 25-288): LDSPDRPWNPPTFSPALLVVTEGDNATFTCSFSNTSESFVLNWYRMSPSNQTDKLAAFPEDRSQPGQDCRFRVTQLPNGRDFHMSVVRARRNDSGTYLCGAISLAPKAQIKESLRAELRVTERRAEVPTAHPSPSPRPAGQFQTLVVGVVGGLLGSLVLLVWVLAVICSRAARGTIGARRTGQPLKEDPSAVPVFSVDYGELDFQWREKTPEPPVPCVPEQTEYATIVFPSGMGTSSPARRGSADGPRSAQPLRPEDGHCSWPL

Usually IC50 stands for the concentration needed to halve the response being measured. On to `CCCC[C@H]1NC(=O)[C@H](C)N(C)C(=O)[C@H](CCCNC(=N)N)NC(=O)[C@H](Cc2ccc(-c3ccccc3)cc2)NC(=O)[C@H](C(C)C)NC(=O)[C@H](Cc2c[nH]c3ccccc23)NC(=O)[C@H](CC(=O)O)NC(=O)[C@H](Cc2ccc(O)cc2)NC(=O)[C@H](Cc2ccccc2)NC(=O)CSC[C@@H](C(=O)N[C@@H](C)C(N)=O)NC(=O)[C@H]([C@@H](C)O)NC(=O)[C@H](C(C)C)NC(=O)[C@H](CC(C)C)NC(=O)[C@H](CCCNC(=N)N)NC1=O` [Compound 1063] ({CH2CO}-FYDWV[Bip]R[NMeA][dNle]RLVTCA-NH2; thioether N-14), for which the IC50 is 0.06 µM. On to `CC(C)C[C@@H]1NC(=O)[C@H](CCCN)NC(=O)[C@@H](CC(C)C)NC(=O)[C@H](C)N(C)C(=O)[C@H](CCCNC(=N)N)NC(=O)[C@H](Cc2ccc(-c3ccccc3)cc2)NC(=O)[C@H](C(C)C)NC(=O)[C@H](Cc2c[nH]c3ccccc23)NC(=O)[C@H](CC(=O)O)NC(=O)[C@H](Cc2ccc(O)cc2)NC(=O)[C@H](CC(N)=O)NC(=O)CSC[C@@H](C(=O)N[C@@H](C)C(N)=O)NC(=O)[C@H]([C@@H](C)O)NC(=O)[C@H](C(C)C)NC1=O` [Compound 1128] ({CH2CO}-NYDWV[Bip]R[NMeA][dL][Orn]LVTCA-NH2; thioether N-14), for which the IC50 was determined as 0.08 µM.

In the case of `CCC(C)[C@@H]1NC(=O)[C@H](Cc2ccc(-c3ccccc3)cc2)NC(=O)[C@H](CC(C)C)NC(=O)[C@H](Cc2c[nH]c3ccccc23)NC(=O)[C@H](CC(=O)O)NC(=O)[C@H](Cc2ccc(C(=O)O)cc2)NC(=O)[C@H](Cc2ccc(OCC(=O)O)cc2)NC(=O)CSC[C@@H](C(=O)N[C@@H](CC(N)=O)C(N)=O)NC(=O)[C@H](CCC(=O)O)NC(=O)[C@H](C(C)C)NC(=O)[C@H](CC2CCCCC2)NC(=O)[C@H](CCN)NC(=O)[C@@H](CC(C)C)NC(=O)[C@H](C)N(C)C1=O` (stereo partly drawn) [Compound 1921] ({CH2CO}-Y(Carboxymethyl)[Phe(4-COOH)]DWL[Bip][Ile(3ξ)][NMeA][dL][Dab][Cha]VECN-NH2; thioether N-14), the IC50 amounted to 0.01 µM. Consider `CC(C)C[C@@H]1NC(=O)[C@H](Cc2c[nH]c3ccccc23)NC(=O)[C@H](CC(=O)O)NC(=O)[C@H](Cc2ccc(O)cc2)NC(=O)[C@H](Cc2cccnc2)NC(=O)CSC[C@@H](C(=O)N[C@@H](C)C(N)=O)NC(=O)[C@H](CO)NC(=O)[C@H](C(C)C)NC(=O)[C@H](CC(C)C)NC(=O)[C@H](CC(N)=O)NC(=O)[C@@H](C)NC(=O)[C@H](C)N(C)C(=O)[C@H](C(C)C)NC(=O)[C@H](Cc2ccc(-c3ccccc3)cc2)NC1=O` [Compound 1741] ({CH2CO}-[3Pal]YDWL[Bip]V[NMeA][dA]NLVSCA-NH2; thioether N-14), for which the IC50 was found to be 0.02 µM. The same measure for `CC(C)C[C@@H]1NC(=O)[C@H](CCN)NC(=O)[C@@H](CC(C)C)NC(=O)[C@H](C)N(C)C(=O)[C@H](CCCNC(=N)N)NC(=O)[C@H](Cc2ccc(-c3ccccc3)cc2)NC(=O)[C@H](C(C)C)NC(=O)[C@H](Cc2c[nH]c3ccccc23)NC(=O)[C@H](CC(=O)O)NC(=O)[C@H](Cc2ccc(O)cc2)NC(=O)[C@H](Cc2ccccc2)NC(=O)CSC[C@@H](C(=O)N[C@H](C)C(N)=O)NC(=O)[C@H]([C@@H](C)O)NC(=O)[C@H](C(C)C)NC1=O` [Compound 1170] ({CH2CO}-FYDWV[Bip]R[NMeA][dL][Dab]LVTC[dA]-NH2; thioether N-14): 0.05 µM; for `CC(C)C[C@@H]1NC(=O)[C@H](Cc2c[nH]c3ccccc23)NC(=O)[C@H](CC(=O)O)NC(=O)[C@H](Cc2ccncc2)NC(=O)[C@H](Cc2ccc(OCC(=O)O)cc2)NC(=O)CSC[C@@H](C(=O)N[C@H](CC(N)=O)C(N)=O)NC(=O)[C@H](CO)NC(=O)[C@H](C(C)C)NC(=O)[C@H](CC2CCCCC2)NC(=O)[C@H](CCN)NC(=O)[C@@H](CC(C)C)NC(=O)[C@H](C)N(C)C(=O)[C@H](Cc2ccc(O)cc2)NC(=O)[C@H](Cc2ccc(-c3ccccc3)cc2)NC1=O` [Compound 1907] ({CH2CO}-Y(Carboxymethyl)[4Pal]DWL[Bip]Y[NMeA][dL][Dab][Cha]VSC[dN]-NH2; thioether N-14): 0.12 µM. As for `CC(C)C[C@H]1NC(=O)[C@H](C)N(C)C(=O)[C@H](C(C)C)NC(=O)[C@H](Cc2ccc(-c3ccccc3)cc2)NC(=O)[C@H](C(C)C)NC(=O)[C@H](Cc2c[nH]c3ccccc23)NC(=O)[C@H](CC(=O)O)NC(=O)[C@H](Cc2ccc(O)cc2)NC(=O)[C@H](Cc2ccc(OCC(=O)O)cc2)NC(=O)CSC[C@@H](C(=O)N[C@@H](C)C(N)=O)NC(=O)[C@H]([C@@H](C)O)NC(=O)[C@H](C(C)C)NC(=O)[C@H](CC2CCCCC2)NC(=O)[C@H](CCN)NC1=O` [Compound 1507] ({CH2CO}-Y(Carboxymethyl)YDWV[Bip]V[NMeA][dL][Dab][Cha]VTCA-NH2; thioether N-14), the IC50 is 0.01 µM.

Regarding `CC(C)C[C@@H]1NC(=O)[C@H](CCCCN)NC(=O)[C@@H](CC(C)C)NC(=O)[C@H](C)N(C)C(=O)[C@H](CCCNC(N)=O)NC(=O)[C@H](Cc2ccc(-c3ccccc3)cc2)NC(=O)[C@H](C(C)C)NC(=O)[C@H](Cc2c[nH]c3ccccc23)NC(=O)[C@H](CC(=O)O)NC(=O)[C@H](Cc2ccc(O)cc2)NC(=O)[C@H](CC(N)=O)NC(=O)CSC[C@@H](C(=O)NCC(N)=O)NC(=O)[C@H]([C@@H](C)O)NC(=O)[C@H](C(C)C)NC1=O` [Compound 1475] ({CH2CO}-NYDWV[Bip][Cit][NMeA][dL]KLVTCG-NH2; thioether N-14), the IC50 was determined as 0.05 µM. For the molecule `Cc1cccc(C[C@@H]2NC(=O)[C@H](CC(=O)O)NC(=O)[C@H](Cc3ccc(C(=O)O)cc3)NC(=O)[C@H](Cc3ccsc3)NC(=O)CSC[C@@H](C(=O)N[C@@H](CCN)C(N)=O)NC(=O)[C@H](CO)NC(=O)[C@H](C(C)(C)O)NC(=O)[C@H](CC3CCCCC3)NC(=O)[C@H](CCN)NC(=O)[C@@H](CC(C)C)NC(=O)[C@H](C)N(C)C(=O)[C@H](Cc3ccc(OCC(=O)O)cc3)NC(=O)[C@H](Cc3ccc(-c4ccccc4)cc3)NC(=O)[C@H](Cc3ccc(OCC(=O)O)cc3)NC2=O)c1` [Compound 2133] ({CH2CO}-[3Thi][Phe(4-COOH)]D[Phe(3-Me)]Y(Carboxymethyl)[Bip]Y(Carboxymethyl)[NMeA][dL][Dab][Cha][Val(3-OH)]SC[Dab]-NH2; thioether N-14), the IC50 was 0.01 µM. Turning to `CC(C)C[C@@H]1NC(=O)[C@H](CCCNC(=N)N)NC(=O)[C@@H](CC(C)C)NC(=O)[C@H](C)N(C)C(=O)[C@H](CCCNC(=N)N)NC(=O)[C@H](Cc2ccc(-c3ccccc3)cc2)NC(=O)[C@H](C(C)C)NC(=O)[C@H](Cc2c[nH]c3ccccc23)NC(=O)[C@H](CC(=O)O)NC(=O)[C@H](Cc2ccc(F)cc2)NC(=O)[C@H](Cc2ccccc2)NC(=O)CSC[C@@H](C(=O)N[C@@H](C)C(N)=O)NC(=O)[C@H]([C@@H](C)O)NC(=O)[C@H](C(C)C)NC1=O` [Compound 1080] ({CH2CO}-F[Phe(4-F)]DWV[Bip]R[NMeA][dL]RLVTCA-NH2; thioether N-14), the 50% inhibitory concentration (IC50) amounted to 0.14 µM. On to `CC(C)C[C@@H]1NC(=O)[C@H](CCN)NC(=O)[C@@H](CC(C)C)NC(=O)[C@@H]2CCCCN2C(=O)[C@H](Cc2cnc[nH]2)NC(=O)[C@H](Cc2ccc(-c3ccccc3)cc2)NC(=O)[C@H](C(C)C)NC(=O)[C@H](Cc2c[nH]c3ccccc23)NC(=O)[C@H](CC(=O)O)NC(=O)[C@H](Cc2ccc(O)cc2)NC(=O)[C@H](CC(N)=O)NC(=O)CSC[C@@H](C(=O)N[C@@H](C)C(N)=O)NC(=O)[C@H]([C@@H](C)O)NC(=O)[C@H](C(C)C)NC1=O` [Compound 1381] ({CH2CO}-NYDWV[Bip]H[Pip][dL][Dab]LVTCA-NH2; thioether N-14), for which the IC50 was 0.03 µM.

As to `CC(C)C[C@@H]1NC(=O)[C@H](Cc2c[nH]c3ccccc23)NC(=O)[C@H](CC(=O)O)NC(=O)[C@H](Cc2ccc(O)cc2)NC(=O)[C@H](Cc2ccccc2)NC(=O)CSC[C@@H](C(=O)N[C@@H](C)C(N)=O)NC(=O)[C@H](CO)NC(=O)[C@H](C(C)C)NC(=O)[C@H](CC(C)C)NC(=O)[C@H](CC(N)=O)NC(=O)[C@@H](CC(C)C)NC(=O)[C@H](C)N(C)C(=O)[C@H](C(C)C)NC(=O)[C@H](Cc2ccc(-c3ccccc3)cc2)NC1=O` [Compound 1745] ({CH2CO}-FYDWL[Bip]V[NMeA][dL]NLVSCA-NH2; thioether N-14), the IC50 turned out to be 0.02 µM.

Take `CCC(C)[C@@H]1NC(=O)[C@H](Cc2ccc(-c3ccccc3)cc2)NC(=O)[C@H](C(C)C)NC(=O)[C@H](Cc2c[nH]c3ccccc23)NC(=O)[C@H](CC(=O)O)NC(=O)[C@H](Cc2ccc(O)cc2)NC(=O)[C@H](CC(N)=O)NC(=O)CSC[C@@H](C(=O)N[C@@H](CC(=O)O)C(=O)N[C@@H](CCN)C(=O)O)NC(=O)[C@H](C(C)O)NC(=O)[C@H](C(C)C)NC(=O)[C@H](CC2CCCCC2)NC(=O)[C@H](CC(N)=O)NC(=O)[C@@H](CC(C)C)NC(=O)[C@H](C)N(C)C1=O` (stereo partly drawn) [Compound 2002] ({CH2CO}-NYDWV[Bip][Ile(3ξ)][NMeA][dL]N[Cha]V[Thr(3ξ)]CD[Dab]-OH; thioether N-14): the IC50 was found to be 0.14 µM.

For `C#CC[C@H](NC(=O)CNC(=O)[C@@H]1CSCC(=O)N[C@@H](Cc2ccc(OCC(=O)O)cc2)C(=O)N[C@@H](Cc2ccc(C(=O)O)cc2)C(=O)N[C@@H](CC(=O)O)C(=O)N[C@@H](Cc2c[nH]c3ccccc23)C(=O)N[C@@H](CC(C)C)C(=O)N[C@@H](Cc2ccc(-c3ccccc3)cc2)C(=O)N[C@@H](C(C)C)C(=O)N(C)[C@@H](C)C(=O)N[C@H](CC(C)C)C(=O)N[C@@H](CCN)C(=O)N[C@@H](CC2CCCCC2)C(=O)N[C@@H](C(C)C)C(=O)N[C@@H](CO)C(=O)N1)C(N)=O` [Compound 1932] ({CH2CO}-Y(Carboxymethyl)[Phe(4-COOH)]DWL[Bip]V[NMeA][dL][Dab][Cha]VSCG[Pra]-NH2; thioether N-14), the IC50 came to 0.02 µM. `CC(C)C[C@@H]1NC(=O)[C@H](CCCCN)NC(=O)[C@@H](CC(C)C)NC(=O)[C@H](C)N(C)C(=O)[C@H](CCCNC(=N)N)NC(=O)[C@H](Cc2ccc(-c3ccccc3)cc2)NC(=O)[C@H](C(C)C)NC(=O)[C@H](Cc2c[nH]c3ccccc23)NC(=O)[C@H](CC(=O)O)NC(=O)[C@H](Cc2ccc(O)cc2)NC(=O)[C@H](Cc2ccccc2)NC(=O)CSC[C@@H](C(=O)N[C@@H](CCC(=O)O)C(N)=O)NC(=O)[C@H]([C@@H](C)O)NC(=O)[C@H](C(C)C)NC1=O` [Compound 1168] ({CH2CO}-FYDWV[Bip]R[NMeA][dL]KLVTCE-NH2; thioether N-14): the IC50 came to 0.12 µM.
